Reference: patent US20260007680A1, “Compounds and Their Use as PDE4 Activators” (Mironid Limited, priority 2022, published 2026)

Each compound was assayed on m-IMCD3 cells (assay: Inhibition of PGE2-stimulated in vitro cyst formation in 3D culture of m-IMCD3 cells (Experiment 4)). Settings: 3D culture.
Type: cell-based, mouse
Experimental: HEK 293 and MDCK cells (Public Health England, Cell Culture Collections) were maintained in Dulbecco's Modified Eagle's Medium (DMEM) supplemented with 10% (v/v) fetal bovine serum (FBS) (Seralab), 2 mM L-glutamine and 100 U/ml penicillin streptomycin cocktail (ThermoFisher); termed complete media. Clonal HEK 293 cell lines were maintained in complete media supplemented with 0.6 mg/mL G418 (Enzo Life Sciences). Mouse inner medullary collecting duct (m-IMCD3) cells [American Type Culture Collection (ATCC)] were maintained in media consisting of DMEM/Hams F-12 50/50 Mix (DMEM F12; Corning) supplemented with penicillin streptomycin cocktail (100 U/ml) and FBS (10% v/v) (DMEM F12-10% FBS).
The mouse Inner Medullary Collecting Duct cell line (m-IMCD3) spontaneously forms cystic spheroids in 3D culture with a Type 1 collagen/Matrigel extracellular matrix. This process can be stimulated with agents which raise intracellular cAMP and is used as an in vitro model for the formation of cystic structures in the kidneys of patients with ADPKD.
Rat Collagen I (Fisher Scientific) is prepared on ice by neutralising with 1 M NaOH and diluting with a 2×volume of DMEM/F12+10% FBS. This is mixed 1:1.1 with ice cold Matrigel (Corning) for coating plates (coating mix), and 1:0.93 with Matrigel for cell plating (plating mix).
The assay is conducted in the wells of a 96-well plate culture dish using a total volume of 130 μL of collagen/Matrigel/DMEM F12-10% FBS suspension in growth media for each matrix plug per individual well. Initially, 30 μL of collagen/Matrigel/DMEM F12-10% FBS (coating mix) is added into the well of a 96 well plate and the collagen is set to a gel by incubating at 37° C. for at least 15 minutes. A second layer of 100 μL collagen/Matrigel suspension (plating mix) containing m-IMCD3 cells (2.75×10^6 m-IMCD3 cells per 96-well plate) is layered over the coating mix and the collagen/Matrigel/cell mix again set to a gel by incubating at 37° C. Cell cultures are maintained at 37° C. in an atmosphere of 5% CO2, 95% air.
Between 18 and 24 h after plating, test compound(s) as DMSO stock solutions [0.1% (v/v) final DMSO concentration] and PGE2 (100 nM final concentration) in DMEM F12-10% FBS are added in quadruplicate wells per condition. Media, together with the test compound and PGE2 are replenished after 2 or 3 days. After 6 days of culture z stack images of the wells are captured using the Nikon Eclipse Ti2-E microscope. Nikon General Analysis software is used to measure the following parameters in each well: the mean cyst area, the number of cysts, and the total cyst area.
PDE4 long form activators inhibited in vitro cyst formation in m-IMCD3 cells. Data are shown in FIG. 2 and Table 4 as mean cyst area (%), compared to 100% for (DMSO+PGE2) and 0% for DMSO control.

SMILES | inhibition of PGE2-stimulated cyst formation in m-IMCD3 cells (FIG. 2, text)
CCN1CCC(c2nc3ccc(C(=O)N[C@H]4CCOc5ccccc54)cn3n2)CC1 [Example 51, (S)—N-(chroman-4-yl)-2-(1-ethylpiperidin-4-yl)-[1,2,4]triazolo[1,5-a]pyridine-6-carboxamide] | concentration-dependent inhibition

Same assay, conditions: Mus musculus, mIMCD3, 144 h, 10 μM test compound, mean cyst area compared to 100% for (DMSO + PGE2) and 0% for DMSO control, read-out: % Cyst area* after incubation with 10 μM test compound

SMILES | activity at 10 µM
Cc1ccncc1-c1nc2cc(C(=O)N[C@H]3CCOc4ccccc43)ccc2[nH]1 [Example 1, (S)—N-(chroman-4-yl)-2-(4-methylpyridin-3-yl)-1H-benzo[d]imidazole-5-carboxamide] | 26%
Cc1ncccc1-c1nc2cc(C(=O)N[C@H]3CCOc4ccccc43)ccc2[nH]1 [Example 3, (S)—N-(chroman-4-yl)-2-(2-methylpyridin-3-yl)-1H-benzo[d]imidazole-5-carboxamide] | 20%
Cc1ccc(-c2nc3cc(C(=O)N[C@H]4CCOc5ccccc54)ccc3n2C)cn1 [Example 21, (S)—N-(chroman-4-yl)-1-methyl-2-(6-methylpyridin-3-yl)-1H-benzo[d]imidazole-5-carboxamide] | 3%
Cc1ncccc1-c1nc2cc(C(=O)N[C@H]3CCOc4ccccc43)ccc2n1C [Example 22, (S)—N-(chroman-4-yl)-1-methyl-2-(2-methylpyridin-3-yl)-1H-benzo[d]imidazole-5-carboxamide] | 18%
Cc1cncc(-c2nc3cc(C(=O)N[C@H]4CCOc5ccccc54)ccc3n2C)c1 [Example 23, (S)—N-(chroman-4-yl)-1-methyl-2-(5-methylpyridin-3-yl)-1H-benzo[d]imidazole-5-carboxamide] | 12%
Cn1c(-c2cccnc2)nc2cc(C(=O)N[C@H]3CCOc4ccccc43)ccc21 [Example 24, (S)—N-(chroman-4-yl)-1-methyl-2-(pyridin-3-yl)-1H-benzo[d]imidazole-5-carboxamide] | 21%
Cn1c(N2CCNCC2)nc2ccc(C(=O)N[C@H]3CCOc4ccccc43)cc21 [Example 31, (S)—N-(chroman-4-yl)-1-methyl-2-(piperazin-1-yl)-1H-benzo[d]imidazole-6-carboxamide] | 3%
Cn1c(N2CCNCC2)nc2cc(C(=O)N[C@H]3CCOc4ccccc43)ccc21 [Example 33, (S)—N-(chroman-4-yl)-1-methyl-2-(piperazin-1-yl)-1H-benzo[d]imidazole-5-carboxamide] | 19%
O=C(N[C@H]1CCOc2ccccc21)c1ccc2nc(N3CCNCC3)nn2c1 [Example 40, (S)—N-(chroman-4-yl)-2-(piperazin-1-yl)-[1,2,4]triazolo[1,5-a]pyridine-6-carboxamide] | 11%
CCN1CCN(c2nc3ccc(C(=O)N[C@H]4CCOc5ccccc54)cn3n2)CC1 [Example 45, (S)—N-(chroman-4-yl)-2-(4-ethylpiperazin-1-yl)-[1,2,4]triazolo[1,5-a]pyridine-6-carboxamide] | 15%
CC(C)N1CCN(c2nc3ccc(C(=O)N[C@H]4CCOc5ccccc54)cn3n2)CC1 [Example 46, (S)—N-(chroman-4-yl)-2-(4-isopropylpiperazin-1-yl)-[1,2,4]triazolo[1,5-a]pyridine-6-carboxamide] | 4%
O=C(N[C@H]1CCc2ccccc21)c1ccc2nc(N3CCNCC3)nn2c1 [Example 48, (S)—N-(2,3-dihydro-1H-inden-1-yl)-2-(piperazin-1-yl)-[1,2,4]triazolo[1,5-a]pyridine-6-carboxamide] | 22%
CN1CCC(c2nc3ccc(C(=O)N[C@H]4CCOc5ccccc54)cn3n2)CC1 [Example 50, (S)—N-(chroman-4-yl)-2-(1-methylpiperidin-4-yl)-[1,2,4]triazolo[1,5-a]pyridine-6-carboxamide] | 6%
CCN1CCC(c2nc3ccc(C(=O)N[C@H]4CCOc5ccccc54)cn3n2)CC1 [Example 51, (S)—N-(chroman-4-yl)-2-(1-ethylpiperidin-4-yl)-[1,2,4]triazolo[1,5-a]pyridine-6-carboxamide] | 6%
Cc1ncccc1-c1nc2cc(C(=O)N[C@H]3CCOc4ccccc43)ccn2n1 [Example 52, (S)—N-(chroman-4-yl)-2-(2-methylpyridin-3-yl)-[1,2,4]triazolo[1,5-a]pyridine-7-carboxamide] | 19%
CN1CCN(c2nc3cc(C(=O)N[C@H]4CCOc5ccccc54)ccn3n2)CC1 [Example 56, (S)—N-(chroman-4-yl)-2-(4-methylpiperazin-1-yl)-[1,2,4]triazolo[1,5-a]pyridine-7-carboxamide] | 14%

SMILES | activity at 10 µM
O=C(N[C@H]1CCOc2ccccc21)c1ccn2nc(N3CCCCC3)nc2c1 [Example 59, (S)—N-(chroman-4-yl)-2-(piperidin-1-yl)-[1,2,4]triazolo[1,5-a]pyridine-7-carboxamide] | 26%
CCN1CCN(c2nc3cc(C(=O)N[C@H]4CCOc5ccccc54)ccn3n2)CC1 [Example 60, (S)—N-(chroman-4-yl)-2-(4-ethylpiperazin-1-yl)-[1,2,4]triazolo[1,5-a]pyridine-7-carboxamide] | 18%
CC(C)N1CCN(c2nc3cc(C(=O)N[C@H]4CCOc5ccccc54)ccn3n2)CC1 [Example 61, (S)—N-(chroman-4-yl)-2-(4-isopropylpiperazin-1-yl)-[1,2,4]triazolo[1,5-a]pyridine-7-carboxamide] | 10%
O=C(N[C@H]1CCc2ccccc21)c1ccn2nc(N3CCNCC3)nc2c1 [Example 62, (S)—N-(2,3-dihydro-1H-inden-1-yl)-2-(piperazin-1-yl)-[1,2,4]triazolo[1,5-a]pyridine-7-carboxamide] | 0%
CN1CCN(c2nc3cc(C(=O)N[C@H]4CCc5ccccc54)ccn3n2)CC1 [Example 64, (S)—N-(2,3-dihydro-1H-inden-1-yl)-2-(4-methylpiperazin-1-yl)-[1,2,4]triazolo[1,5-a]pyridine-7-carboxamide] | 1%
O=C(NC1CCCC1)c1ccc2nc(N3C4CCC3CNC4)cn2c1 [Example 67, 2-(3,8-diazabicyclo[3.2.1]octan-8-yl)-N-cyclopentylimidazo[1,2-a]pyridine-6-carboxamide] | 27%
O=C(N[C@H]1CCOc2ccccc21)c1cnc2cc(N3CCNCC3)nn2c1 [Example 68, (S)—N-(chroman-4-yl)-2-(piperazin-1-yl)pyrazolo[1,5-a]pyrimidine-6-carboxamide] | 9%
CN1CCN(c2cc3ncc(C(=O)N[C@H]4CCOc5ccccc54)cn3n2)CC1 [Example 69, (S)—N-(chroman-4-yl)-2-(4-methylpiperazin-1-yl)pyrazolo[1,5-a]pyrimidine-6-carboxamide] | 7%
CCN1CCN(c2cc3ncc(C(=O)N[C@H]4CCOc5ccccc54)cn3n2)CC1 [Example 70, (S)—N-(chroman-4-yl)-2-(4-ethylpiperazin-1-y)pyrazolo[1,5-a]pyrimidine-6-carboxamide] | 5%
CCN1CCN(c2cc3ncc(C(=O)NC4CCCCC4)cn3n2)CC1 [Example 73, N-cyclohexyl-2-(4-ethylpiperazin-1-yl)pyrazolo[1,5-a]pyrimidine-6-carboxamide] | -3%
CCN1CCN(c2cc3ncc(C(=O)N[C@H]4CCc5ccccc54)cn3n2)CC1 [Example 75, (S)—N-(2,3-dihydro-1H-inden-1-yl)-2-(4-ethylpiperazin-1-yl)pyrazolo[1,5-a]pyrimidine-6-carboxamide] | 19%
CN1CCN(c2cc3ncc(C(=O)NC4CCCC4)cn3n2)CC1 [Example 76, N-cyclopentyl-2-(4-methylpiperazin-1-yl)pyrazolo[1,5-a]pyrimidine-6-carboxamide] | 9%
CN1CCN(c2cc3ncc(C(=O)NC4CCCCC4)cn3n2)CC1 [Example 77, N-cyclohexyl-2-(4-methylpiperazin-1-yl)pyrazolo[1,5-a]pyrimidine-6-carboxamide] | 0%
O=C(NC1CCCC1)c1cnc2cc(N3C4CCC3CNC4)nn2c1 [Example 80, 2-(3,8-diazabicyclo[3.2.1]octan-8-yl)-N-cyclopentylpyrazolo[1,5-a]pyrimidine-6-carboxamide] | 14%
CN1CC2CCC(C1)N2c1cc2ncc(C(=O)NC3CCCC3)cn2n1 [Example 81, N-cyclopentyl-2-(3-methyl-3,8-diazabicyclo[3.2.1]octan-8-yl)pvrazolo[1,5-a]pyrimidine-6-carboxamide] | -3%
